Results reported in PMC5693660 (Amino acids, 2017).

Target: T1, deoxyhypusine synthase (DHS) (Homo sapiens, UniProt P49366)
T1 sequence (P49366 1-369): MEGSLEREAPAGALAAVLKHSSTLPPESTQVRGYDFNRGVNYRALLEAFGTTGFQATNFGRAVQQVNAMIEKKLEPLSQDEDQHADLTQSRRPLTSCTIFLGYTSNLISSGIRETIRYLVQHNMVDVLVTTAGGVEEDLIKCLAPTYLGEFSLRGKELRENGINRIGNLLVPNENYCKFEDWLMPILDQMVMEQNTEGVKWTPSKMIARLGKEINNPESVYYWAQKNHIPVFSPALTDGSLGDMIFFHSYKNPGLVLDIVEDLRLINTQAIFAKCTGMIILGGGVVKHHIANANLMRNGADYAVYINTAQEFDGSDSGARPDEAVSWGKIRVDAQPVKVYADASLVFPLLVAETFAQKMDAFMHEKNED
Assay type: biochemical

`N=C(N)NCCCCCCCN` [GC7] gave an IC50 of less than 1000 nM.
